Assays:
[1] = system: P. falciparum male gametocytes; assay: P. falciparum Dual Gamete Formation Assay (PfDGFA), male readout (exflagellation); assay type: cell-based, Plasmodium falciparum NF54; details: for Average inhibition male (%): average of replicates; for % inhibition male (individual replicates) R1: replicate R1; for % inhibition male (individual replicates) R4: replicate R4; for % inhibition male (individual replicates) R3: replicate R3; for Activity: hit = >50% inhibition in male or female readout in at least 3 replicates, 0 = no class assigned
Method in brief: (§1)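 Male and female gamete formation were quantified by microscopy image analysis following 24 h incubation of mature NF54 gametocytes with compound and activation at 28°C with xanthurenic acid.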

[2] = system: P. falciparum female gametocytes; assay: P. falciparum Dual Gamete Formation Assay (PfDGFA), female readout (Pfs25-positive female gametes); assay type: cell-based, Plasmodium falciparum NF54; details: for Average inhibition female (%): average of replicates; for % inhibition female (individual replicates) R1: replicate R1; for % inhibition female (individual replicates) R3: replicate R3; for % inhibition female (individual replicates) R4: replicate R4
Method in brief: as §1

[3] = PfDGFA at 2µM, 24h preincubation with gametocytes
[4] = number of replicates with >50% inhibition in the male readout, 2µM
[5] = number of replicates with >50% inhibition in the female readout, 2µM
[6] = PfDGFA at 2µM, 24h preincubation with gametocytes prior to induction of gametogenesis
[7] = PfDGFA at 2µM, 24h preincubation
[8] = 2µM, 24h preincubation with gametocytes prior to induction of gametogenesis
[9] = 2µM, 24h preincubation, hits selected on >50% inhibition in the male readout across replicates
[10] = 2µM, 24h preincubation, hits selected on >50% inhibition in the female readout across replicates
[11] = 2µM, 24h preincubation with gametocytes

Compound	% inhibition male (individual replicates) R1 [1, 6]	% inhibition male (individual replicates) R4 [1, 6]	Average inhibition male (%) [1, 7]	% inhibition female (individual replicates) R1 [2, 6]	% inhibition female (individual replicates) R3 [2, 6]	% inhibition female (individual replicates) R4 [2, 6]	Average inhibition female (%) [2, 7]	Average inhibition male (%) [1, 8]	% inhibition male (individual replicates) R1 [1, 8]	% inhibition male (individual replicates) R4 [1, 8]	Average inhibition female (%) [2, 8]	% inhibition female (individual replicates) R1 [2, 8]	% inhibition female (individual replicates) R3 [2, 8]	% inhibition female (individual replicates) R4 [2, 8]	further results
COc1c(OC)c(OC)c2ccccc2c1CNCCCCCCNCc1c(OC)c(OC)c(OC)c2ccccc12.Cl [TCMDC-137827]	–	–	–	–	–	–	–	–	–	–	–	–	–	–	Average inhibition male (%) [1, 3]: 67.6%; % inhibition male (individual replicates) R1 [1, 3]: 64.0%; % inhibition male (individual replicates) R4 [1, 3]: 54.3%; HitlevelM [1, 4]: 3; Average inhibition female (%) [2, 3]: 37.0%; % inhibition female (individual replicates) R1 [2, 3]: 45.3%; % inhibition female (individual replicates) R3 [2, 3]: 25.5%; % inhibition female (individual replicates) R4 [2, 3]: 33.3%; HitlevelF [2, 5]: 0
CCCCCN1CCCC1CNS(=O)(=O)c1cccc(C(=O)Nc2cccc(C#N)c2)c1.O=C(O)C(F)(F)F (stereo not drawn) [TCMDC-133690]	-0.3%	15.0%	7.9%	2.9%	-5.0%	6.8%	-0.08%	–	–	–	–	–	–	–	–
COc1ccc(CCNCCCCCCNCCc2ccc(Cl)c(Cl)c2)cc1OC.Cl [TCMDC-131275]	–	–	–	–	–	–	–	39.4%	42.2%	46.9%	10.6%	26.6%	-14.3%	22.3%	% inhibition male (individual replicates) R3 [1, 8]: 31.4%; HitlevelM [1, 9]: 0; Activity [1, 7]: 0; HitlevelF [2, 10]: 0
Br.C[C@@H](COc1ccc(-c2ccccc2)cc1)CON1C(N)=NC(N)=NC1(C)C [TCMDC-124029]	–	–	–	–	–	–	–	12.1%	13.7%	7.3%	5.2%	-6.6%	32.8%	-1.3%	% inhibition male (individual replicates) R3 [1, 8]: -5.2%; HitlevelM [1, 9]: 0; Activity [1, 7]: 0; HitlevelF [2, 10]: 0
COc1ccc(C(=O)Nc2cc(Cl)c3c(c2)C2CCCN2CC3)cc1C(F)(F)F.Cl (stereo not drawn) [TCMDC-139417]	-1.3%	9.8%	13.2%	2.5%	-4.3%	1.3%	1.8%	–	–	–	–	–	–	–	–
Cl.Nc1ncc(Cc2cc(Cl)c(N)c3ncccc23)c(N)n1 [TCMDC-137889]	6.1%	-13.1%	-7.9%	12.6%	-23.8%	5.5%	-0.8%	–	–	–	–	–	–	–	% inhibition male (individual replicates) R3 [1, 6]: -28.8%
OC1CCN(c2cc(-c3ccccn3)nc(-c3ccccn3)n2)CC1 [TCMDC-123786]	-14.8%	-28.8%	-7.4%	-1.4%	-6.8%	3.7%	0.215%	–	–	–	–	–	–	–	–
Cc1cc(F)ccc1-c1nc(Nc2ccncc2)c2ccn(C)c2n1 [TCMDC-141231]	-14.5%	32.9%	-2.0%	10.5%	-5.5%	-9.9%	-2.8%	–	–	–	–	–	–	–	% inhibition male (individual replicates) R3 [1, 6]: -17.7%
O=C(O)C(F)(F)F.c1cc(CNCCN2CCNCC2)cc(-c2ccc(-c3nc4ccccc4[nH]3)cc2)c1 [TCMDC-132861]	-18.7%	-15.3%	-11.2%	-3.1%	-9.9%	9.1%	1.2%	–	–	–	–	–	–	–	–
COc1ccc2c(c1)nc(CNC(=N)N)n2Cc1ccc(Cl)cc1.Cl [TCMDC-142042]	–	–	–	–	–	–	–	-2.9%	-15.5%	30.2%	8.7%	5.3%	-8.2%	2.2%	% inhibition male (individual replicates) R3 [1, 8]: -14.5%; HitlevelM [1, 9]: 0; Activity [1, 7]: 0; HitlevelF [2, 10]: 0
COc1ccc(N(C)Cc2cnc3nc(N)nc(N)c3n2)cc1 [TCMDC-137682]	16.6%	-18.5%	5.0%	1.5%	1.9%	1.8%	3.6%	–	–	–	–	–	–	–	–
CCC(=C(CC)c1ccc(O)c(CNC2CCCCC2)c1)c1ccc(O)c(CNC2CCCCC2)c1.Cl [TCMDC-137481]	–	–	–	–	–	–	–	1.2%	-0.3%	0.8%	5.6%	2.3%	13.0%	6.2%	HitlevelM [1, 9]: 0; Activity [1, 7]: 0; HitlevelF [2, 10]: 0
Nc1nc(Cc2ccc(Cl)cc2)nc(Cc2ccc(Cl)cc2)n1 [TCMDC-137497]	-13.6%	-34.5%	-26.4%	-4.6%	-30.4%	8.0%	-6.5%	–	–	–	–	–	–	–	% inhibition male (individual replicates) R3 [1, 6]: -49.6%
COc1ccc(CCNC(C)Cc2ccc(C(=O)Nc3ccc(CC(C)NCCc4cccc(Cl)c4)cc3)cc2)cc1 (stereo not drawn) [TCMDC-139750]	–	–	–	–	–	–	–	–	–	–	–	–	–	–	Average inhibition male (%) [1, 3]: 69.1%; % inhibition male (individual replicates) R1 [1, 3]: 78.2%; % inhibition male (individual replicates) R3 [1, 3]: 37.9%; % inhibition male (individual replicates) R4 [1, 3]: 84.9%; HitlevelM [1, 4]: 3; Average inhibition female (%) [2, 3]: 25.6%; % inhibition female (individual replicates) R1 [2, 3]: 25.4%; % inhibition female (individual replicates) R3 [2, 3]: 18.2%; % inhibition female (individual replicates) R4 [2, 3]: 15.5%; HitlevelF [2, 5]: 0
C[C@@H](Oc1cc(-n2cnc3ccc(OCC4CCN(S(C)(=O)=O)CC4)cc32)sc1C(N)=O)c1ccccc1C(F)(F)F [TCMDC-135685]	–	–	–	–	–	–	–	39.3%	77.8%	-12.5%	30.5%	13.3%	19.8%	50.4%	% inhibition male (individual replicates) R3 [1, 8]: 32.6%; HitlevelM ([1]; 2µM, 24h preincubation, number of replicates with >50% inhibition in the male readout): 2; HitlevelF ([2]; 2µM, 24h preincubation, number of replicates with >50% inhibition in the female readout): 1
Cl.Nc1c(I)cc(C(=O)Nc2ccc3nc4c(c(N)c3c2)CCCC4)cc1I [TCMDC-142289]	–	–	–	–	–	–	–	–	–	–	–	–	–	–	Average inhibition male (%) [1, 11]: 92.1%; % inhibition male (individual replicates) R1 [1, 11]: 89.6%; % inhibition male (individual replicates) R4 [1, 11]: 96.1%; Average inhibition female (%) [2, 11]: 49.6%; % inhibition female (individual replicates) R1 [2, 11]: 51.7%; % inhibition female (individual replicates) R3 [2, 11]: 34.7%; % inhibition female (individual replicates) R4 [2, 11]: 48.7%
Cc1nc(N)nc(N)c1CCCOc1ccccc1Br [TCMDC-138069]	–	–	–	–	–	–	–	1.8%	12.4%	-23.1%	5.9%	14.2%	13.3%	-1.6%	% inhibition male (individual replicates) R3 [1, 8]: -15.7%; HitlevelM [1, 9]: 0; Activity [1, 7]: 0; HitlevelF [2, 10]: 0
CN(C)CCNCc1ccc(-c2ccc3c(Nc4ccc(Oc5ccccc5)cc4)ccnc3c2)o1 [TCMDC-138399]	–	–	–	–	–	–	–	–	–	–	–	–	–	–	Average inhibition male (%) [1, 3]: 74.5%; % inhibition male (individual replicates) R1 [1, 3]: 82.1%; % inhibition male (individual replicates) R3 [1, 3]: 51.0%; % inhibition male (individual replicates) R4 [1, 3]: 85.6%; HitlevelM [1, 4]: 4; Average inhibition female (%) [2, 3]: 26.2%; % inhibition female (individual replicates) R1 [2, 3]: 29.8%; % inhibition female (individual replicates) R3 [2, 3]: 23.6%; % inhibition female (individual replicates) R4 [2, 3]: 16.9%; HitlevelF [2, 5]: 0

Source: publication PMC10584170, “Machine learning-based phenotypic imaging to characterise the targetable biology of Plasmodium falciparum male gametocytes for the development of transmission-blocking antimalarials” (PLOS Pathogens, 2023)
